“Also recorded” adds a separate entry of the source.
Experiments:
MIN6 cells [1] = assay: Cellular uptake and membrane labeling followed by confocal laser scanning microscopy; type: cell-based, mouse
Description: FIGS. 4A-F. ZIMIR labels plasma membranes of intact living cells rapidly, non-invasively and stably. ZIMIR (1 μM) was added to MIN6 cells in FIBS buffer (containing ˜1 μM Zn^2+ enhance fluorescence intensity). Confocal images (Ex 488 nm, Em 510-550 nm) were subsequently acquired at 2 min (FIG. 4A), 5 min (FIG. 4B), 10 min (FIG. 4C), and 20 min (FIG. 4D). Cells were then washed with FIBS buffer three times and imaged again at 21 min (FIG. 4E), and 140 min (FIG. 4F).
Cell culture and ZIMIR imaging by wide field fluorescence microscopy. Details of cell culture are described below. For cell imaging, we cultured cells in 35 mm petri dishes with glass-bottoms (MatTek, Ashland, Mass.). To label cells with ZIMIR, cells were washed with a Secretion Assay Buffer (SAB) containing 114 mM NaCl, 4.7 mM KCl, 1.2 mM KH2PO4, 2.5 mM CaCl2, 1.16 mM MgSO4, 3 mM glucose, and 20 mM HEPES (pH 7.4). The DMSO stock solution of ZIMIR. (1-2 mM) diluted in a small volume of SAB was added to cells to a final concentration of 1 μM. Cells were then incubated at ˜25° C. for 20 min and washed with SAB before imaging. To image insulin/Zn^2+ secretion, we routinely included 10 μM of EDTA in SAB to chelate the residual Zn^2+ and to reduce the baseline fluorescence. In addition, DPAS (2-4 μM) was added to SAB in some experiments to better resolve the dynamics of oscillatory insulin release.
ZIMIR uptake and Zn2+ response in live cells. To examine the cellular uptake of ZIMIR, the inventors used a mouse insulinoma cell line, MIN6 (Miyazaki et al., 1990). When ZIMIR was incubated with cells at 1 μM concentration, it rapidly adhered to the cell surface of intact living cells (data not shown). In order to test the specificity and stability of membrane labeling, the inventors used confocal laser scanning microscopy (CLSM) to follow the cellular uptake and distribution of ZIMIR in MIN6 cells (FIGS. 4A-F). Within 5 min after probe addition, there was already a clear accumulation of ZIMIR along the plasma membrane (FIGS. 4A-B). By 20 min, the cellular uptake of ZIMIR appeared to reach completion (FIGS. 4C-D). […]

cultured mammalian cells = assay: Growth rate of ZIMIR-labeled cells versus unlabeled cells (cytotoxicity); type: cell-based; conditions: over the next several days after labeling
MIN6 cells [2] = assay: Epifluorescence ZIMIR imaging of KCl-stimulated insulin/Zn2+ release; type: cell-based, mouse; conditions: KCl 40 mM
Description: FIGS. 6A-E. ZIMIR imaging of insulin/Zn^2+ release. (FIGS. 6A-E) KCl stimulated insulin/Zn^2+ release in MIN6 cells. Example images of MIN6 cells (FIG. 6A, DIC/Normasky) before (FIG. 6B) and after KCl (40 mM, C) or Zn^2+ addition (1 μM, D). Time courses of ZIMIR signal changes (F/F0) in two example regions of interest (ROI, indicated in D by dashed lines) along the plasma membrane.
Cell culture and ZIMIR imaging by wide field fluorescence microscopy. Details of cell culture are described below. For cell imaging, we cultured cells in 35 mm petri dishes with glass-bottoms (MatTek, Ashland, Mass.). […] To image insulin/Zn^2+ secretion, we routinely included 10 μM of EDTA in SAB to chelate the residual Zn^2+ and to reduce the baseline fluorescence. […]
Membrane ZIMIR fluorescence intensity was measured by drawing regions of interest (ROIs) along the plasma membrane, and its time course was normalized against its baseline value after background subtraction, i.e., (F-Fbkg)/(F0-Fbkg), where Fbkg is the average background fluorescence intensity of a nearby area containing no cells. […] Wide field fluorescence microscopy was carried out on inverted fluorescence microscopes as described (Guo et al., 2008).
ZIMIR imaging by wide field fluorescence microscopy. […]

## CCCCCCCCCCCCN(CC(=O)O)Cc1c2oc3c(CN(CCCCCCCCCCCC)CC(=O)O)c(O)ccc3c(-c3cc(NCCN(CCc4ccccn4)Cc4ccccn4)ccc3C(=O)O)c-2ccc1=O [ZIMIR]
MIN6 cells [1]; 1 μM ZIMIR, MIN6 cells, CLSM
  time to clear accumulation along the plasma membrane: ≤ 5 min
  time to completion of cellular uptake: ≤ 20 min
MIN6 cells [1]; repetitive washings after labeling
  membrane retention upon washing: did not change membrane fluorescence intensity
Cultured mammalian cells
  growth rate of labeled cells / cytotoxicity: same growth rate as unlabeled cells; also recorded: very little cytotoxicity
MIN6 cells [2]
  ZIMIR fluorescence change upon KCl stimulation: robust enhancement in ZIMIR fluorescence
